Measured values: patent US8318697B2, “Prophylactic and therapeutic treatment of infectious and other diseases with mono- and disaccharide-based compounds” (Corixa Corporation, priority 2000, dated 2012)

Tests used:
human whole blood = format: cell-based
P. carinii = experiment: Protection against P. carinii infection in anti-CD4 treated (immunocompromised) mice, lung impression smear score; format: in vivo; parameters: GIEMSA score for presence of P. carinii / SILVER score for presence of P. carinii: scale not given here
Method: Mice were pretreated with L3T4 anti-CD4 antibody for a minimum of 2 weeks (2 injections/week, 0.2 mg/injection) or until the peripheral CD4 count was reduced by at least about 50%.
An aqueous formulation was prepared containing 1 mg/ml 3-O-deacylated monophosphoryl lipid A and 108 μg/ml of the surfactant DPPC in water. The formulation was administered intratracheally via a small cannula at −24 hours and then twice a week for the remainder of the study. The concentrations administered are indicated below in Table 1. One million P. carinii were inoculated trans-tracheally at day 0. Twice-weekly treatments were continued for 7 weeks, lungs were removed and impression smears made. Slides were stained with Giemsa and silver and scored for the presence of P. carinni as follows.

C3H/HEJ splenocytes = experiment: Cytokine induction in C3H/HEJ (toll-receptor 4 mutant) mouse splenic cultures; format: cell-based
Method: Lipid A compounds were tested by reconstitution in 0.2% triethanolamine in sterile water for irrigation, incubated at 56° C. and sonicated for 2×10 minutes at 37° C. LPS 055B5 (Sigma-Aldrich; St Louis, Mo.) was diluted into PBS.
BALB/c, DBA/2 and C3H/HEJ mice were purchased from The Jackson Laboratory (Bar Harbor, Me.). Spleens were taken from the mice between 2 PM and 3 PM, and separate single cell suspensions were obtained for each mouse strain. Red blood cells were lysed using Tris-ammonium chloride solution (Sigma-Aldrich), cells were washed and counted using Trypan Blue (Sigma-Aldrich) exclusion. One million splenocytes were cultured per well in 1.0 mL of culture medium. Splenic culture medium (SCM) was designed for 5 day or longer cultures of mouse splenocytes and consisted of RPMI 1640 (Sigma-Aldrich) supplemented to 5% with fetal bovine serum (HyClone; Logan, Utah), 100 ug/mL Gentamicin (Sigma-Aldrich), 250 ng/mL amphothericin (InVitrogen Life Technologies; Carlsbad, Calif.), 1×ITS (bovine insulin 500 ng/mL, human transferring 500 ng/mLg, sodium selenite 250 ng/mL, Sigma), beta-mercaptoethanol 43 nM (Sigma-Aldrich) purivic acid 1 mM (Sigma-Aldrich), HEPES 10 mM (Sigma-Aldrich). Data from these experiments is presented herein as FIG. 8.
BALB/c responses and C3H/HEJ responses were compared for MPL and RC552. […]

human macrophage = experiment: Microarray of RNA from stimulated human macrophage; format: cell-based
[1] = 25 MG/KG intratracheally at -24 hours then twice a week, 7 weeks, Table 1
[2] = 100 MG/KG intratracheally, 7 weeks, Table 1
[3] = 250 MG/KG intratracheally, 7 weeks, Table 1

Substance: 3-O-deacylated monophosphoryl lipid A [MPL]
- IL-1β cba2 (human whole blood; donor 1): 1213
- IL10/TNFα cba (human whole blood; donor 2, ratio of IL-10 to TNF): 1
- TNFα/IL10 cba (human whole blood; donor 2, ratio of TNF to IL-10): 1
- GIEMSA score for presence of P. carinii (P. carinii; [1]): 3.4 ± 0.5
- SILVER score for presence of P. carinii (P. carinii; [1]): 3.3 ± 0.1
- GIEMSA score for presence of P. carinii (P. carinii; [2]): 2.7 ± 0.5
- SILVER score for presence of P. carinii (P. carinii; [2]): 3.2 ± 0.1
- GIEMSA score for presence of P. carinii (P. carinii; 100 MG/KG, repeated study, Table 2): 1.3 ± 0.3
- GIEMSA score for presence of P. carinii (P. carinii; 200 MG/KG, repeated study, Table 2): 1.0 ± 0.3
- GIEMSA score for presence of P. carinii (P. carinii; [3]): 1.8 ± 0.8
- SILVER score for presence of P. carinii (P. carinii; [3]): 1.6 ± 0.2
- nonspecific resistance to infection by Pneumocystis carinii (P. carinii; pulmonary delivery, immunocompromised mice): promotes nonspecific resistance to infection by Pneumocystis carinii
- cytokine response (C3H/HEJ splenocytes): Neither MPL nor RC552 induced a cytokine response
- early TNF alpha RNA (human macrophage; 1 hour): early (1 hour) TNF alpha RNA for both compounds
- 6 hour TNF alpha RNA (human macrophage; 6 hour): measurable 6 hour RNA
